In patent EP3613735A1, “NOVEL SIRT 1 ACTIVATOR AND MEDICINAL USE THEREOF” (Pusan National University Industry - University Cooperation …, priority 2017, dated 2018) one finds lifespan data, which are given here for one compound.

The subject of the experiment is yeast (Saccharomyces cerevisiae). Put plainly: Yeast lifespan extension. To be noted: yeast group treated, compared with the control group.

Take `Cl.O=C(Nc1ccccc1-c1cc2ccc(CN3CCNCC3)cc2o1)c1ccc2ccccc2c1` [Compound 32u, N-(2-(6-(Piperazin-1-ylmethyl)benzofuran-2-yl)phenyl)-2-naphthamide hydrochloride]: the lifespan result is recorded as “significantly extended”.
